Results reported in patent publication US20240218156A1, “PLASTICIZER, PLASTIC COMPOSITION, AND PLASTIC PRODUCT” (LARGAN MEDICAL CO., LTD., priority 2022, published 2024).

How the values were obtained:
[1] = system: mouse lung fibroblast (L929 cell line); assay: Cell viability test (ISO10993-5, MTT assay); type: cell-based; conditions: for cell viability: L929, 24 hours, 37° C.
Excerpt: The 1st example is used as the experimental group to perform the cell viability test. Specifically, according to ISO10993-5 standard method, the mouse lung fibroblast (L929 cell line) is used as the test cell, and the composition of the test culture medium is 90% MEM culture medium, 10% fetal bovine serum (FBS) and additional 1% antibiotic (penicillin-streptomycin). Then, the ethanol with the final concentration of 0.1% is used as the solvent to dissolve the tested plasticizer in the test culture medium. The control group of the cell viability test is the test culture solution only added the ethanol with the final concentration of 0.1%. In the experimental group, the plasticizer of the 1st example with the concentration of 0.1 mM or 0.3 mM is added to the test culture solution, respectively, and the concentration of the ethanol in the test culture solution of the control group and the experimental group are the same, the test condition is the 37° C. environment containing 5% carbon dioxide placed for 24 hours. After the test finished, each group is tested with MTT assay, the detection wavelength is the optical density at 570 nm (OD570) and the optical density at 650 nm (OD650), and the cell viability is calculated accordingly. The formula for calculating the cell viability is: (the average value of OD570 and OD650 in the experimental group)/(the average value of three repetitions of (the average value of OD570 and OD650 in the control group))×100%. The cell viability is used to determine whether the group has the cytotoxicity, and when the cell viability is more than 70%, it is considered that this group is non-cytotoxic.

[2] = Pyrolysis temperature of the plasticizer; type: physicochemical
Experimental: According to the plasticizer of the present disclosure, when a pyrolysis temperature of the plasticizer is Pt, the following condition can be satisfied: 100° C.≤Pt. Therefore, it is favorable for stabilizing the structure of the plasticizer at the high temperature by the high pyrolysis temperature of the plasticizer. Furthermore, the following condition can be satisfied: 120° C.≤Pt. Furthermore, the following condition can be satisfied: 150° C.≤Pt. Furthermore, the following condition can be satisfied: 170° C.≤Pt. Furthermore, the following condition can be satisfied: 180° C.≤Pt.

CCC(CC)COC(=O)CC(N)C(=O)OCC(CC)CC (stereo not shown) [1st example, 1,4-bis(2-ethylbutyl) 2-aminobutanedioate]
toxic to the cells ([1]; 0.3 mM): will not be toxic to the cells | cell viability ([1]; plasticizer 0.1 mM): 99.10% | cell viability ([1]; plasticizer 0.3 mM): 81.90% | Pt (º C.) [2]: 200 º C.
